Data published in US20220296573A1, “NOVEL COMPOUNDS AND PHARMACEUTICAL COMPOSITIONS THEREOF FOR THE TREATMENT OF INFLAMMATORY DISORDERS” (Galapagos NV, priority 2019, published 2022).

Key:
[1] = target: T1, human IRAK-4 (Homo sapiens, UniProt Q9NWZ3); assay: Phosphorylation IC50 determination for human IRAK-4 (ADP-Glo Kinase Assay); conditions: human IRAK-4, substrate RIP140, Km ATP; read-out: IRAK4 ADPglo biochemical assay IC50
T1 construct: purchased Carna Biosciences 09 145
T1 sequence (Q9NWZ3 1-460): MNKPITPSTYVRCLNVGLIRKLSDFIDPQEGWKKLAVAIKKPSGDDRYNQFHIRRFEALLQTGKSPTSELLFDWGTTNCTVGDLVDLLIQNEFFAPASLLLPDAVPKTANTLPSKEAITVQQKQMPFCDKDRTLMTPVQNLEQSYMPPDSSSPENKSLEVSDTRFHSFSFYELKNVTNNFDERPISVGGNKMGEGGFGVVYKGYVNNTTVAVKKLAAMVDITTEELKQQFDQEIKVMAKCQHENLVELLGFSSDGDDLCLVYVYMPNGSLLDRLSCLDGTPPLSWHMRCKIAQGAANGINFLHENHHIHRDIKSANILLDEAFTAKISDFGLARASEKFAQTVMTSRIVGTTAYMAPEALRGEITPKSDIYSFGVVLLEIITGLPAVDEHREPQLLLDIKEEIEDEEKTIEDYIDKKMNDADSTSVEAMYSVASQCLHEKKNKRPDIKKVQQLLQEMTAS
Experimental: The phosphorylation of the substrate RIP140 (SEQ ID1) by IRAK4 at Km ATP was detected with the ADP-Glo Kinase Assay (Promega, Cat #V9103), a luminescent kinase assay which measures the ADP formed from a kinase reaction. (Zegzouti et al. 2009) In a second step the kinase reaction was terminated and all the remaining ATP was depleted. In a final step the ADP was converted into ATP and this newly synthesized ATP was measured by using a luciferase/luciferin reaction with a luminescent reader. The luminescent signal positively correlated with kinase activity, in particular kinase inhibition giving a decrease of the luminescent signal.
For the semi-automated assay, the positive control (100% inhibition) was prepared by diluting 10 mM staurosporine stock mixture (20 μL) in water (3.8 mL) and DMSO (180 μL), thus resulting in a […] staurosporine solution at 1% DMSO (final concentration after further dilution in the kinase reaction).
For the automated assay, no pre-dilution of the 10 mM staurosporine stock was made. 10 mM staurosporine was spotted directly in the assay plate using acoustic dispensing and complemented with DMSO to result in a similar final concentration as mentioned above.
For the semi-automated assay, the negative control (0% inhibition) was prepared by mixing water (3.8 mL) and DMSO (200 μL) resulting in a final concentration of 1% DMSO after further dilution in the kinase reaction. For the automated assay no pre-dilution of DMSO was done. 100% DMSO was spotted directly on the assay plate.
The assay buffer solution was prepared at a concentration corresponding to 5 fold the final (most diluted) assay concentration by mixing a solution of 125 mM TRIS pH 7.5+0.05% Triton X-100+2.5 mM EGTA (5.27 mL) with 1M mgCl2 (72 μL), 1M DTT (57.6 μL), and 200 mM MnCl2 (360 μL).
For example, for the semi-automated method, the enzyme-substrate mixture was prepared by mixing water (3999 μL), assay buffer solution (1380 μL), 1 mM RIP140 (138 μL—SEQ ID1), and 200 ng/mL IRAK 4 (3.45 μL Carna Biosciences, 09 145).
For semi-automated method, the ATP mixture was prepared at a concentration corresponding to 2.5 fold the final (most diluted) assay concentration of the semi-automated method and 1.5 fold the final (most diluted) assay concentration of the automated method. For example, for the semi-automated method, the ATP mixture was prepared by mixing water (4126 μL), assay buffer solution (1380 μL), and 10 mM ATP (13.80 μL).
The assay are performed either in a semi-automated or fully automated manner. The assay volume and the incubation time of the ADP detection were different accordingly the method used.
The compounds were prepared as a serial dilution of 10 point dose responses with 1/5 dilution steps in 100% DMSO starting from 2 mM highest concentration, diluted 1/20 in water. 1 μL was transferred dry to the assay plates.
On each assay plate 32 wells of each control (positive & negative) were added, followed by 2 μL enzyme-substrate mixture.
The reaction was started by adding 2 μL diluted ATP (final concentration Km ATP) on the assay plates. Plates were centrifuged for a few seconds at 1000 rpm followed by an incubation at r.t. for 120 min.
The reactions were stopped and the unconsumed ATP was depleted by adding 5 μL ADP-glo Reagent (Promega, Cat #V9103) to the reaction. The plates were quickly centrifuged at 1000 rpm and incubated at r.t. for 40 min corresponding to full ATP depletion.
The ADP was converted back to ATP and luciferase and luciferin were introduced to detect ATP by adding 10 μL kinase detection reagent (Promega, Cat #V9103) to the reaction. The plates were centrifuged for a few seconds at 1000 rpm and incubated at r.t. for a further 30 min.
Luminescent read out was performed on an Envision luminescent reader (Perkin Elmer).
For the automated assay, the compounds were prepared as a serial dilution of 10 point dose responses with 1/5 dilution steps in 100% DMSO starting from 2 mM highest concentration. […]

[2] = test system: Mouse Hepatocyte; assay: Metabolic stability in mouse hepatocytes; format: in vitro ADME; conditions: mouse cryopreserved hepatocytes, 1 μM
Experimental: (§1) The aim of this assay is to determine the metabolic stability of the compound in hepatocytes (cryopreserved) of different species. Low hepatocyte stability may result in the formation of unwanted metabolites, high clearance, and therefore is not desirable.
(§2) A 10 mM stock solution of test compound in DMSO was first diluted in DMSO to 3 mM, and then in modified Krebs-Henseleit buffer (Sigma, K3753) to 5 μM. This compound dilution was added to a suspension of pooled cryopreserved hepatocytes (BioreclamationIVT) at 37° C. under gentle shaking.
(§3) Final reaction conditions were: 1 μM of test compound, 0.03% DMSO, 0.5 million viable hepatocytes/mL, and 75 μL incubation volume.
(§4) Testosterone (1 μM) and 7-hydroxycoumarin (1 μM) were used, respectively as phase I and phase II metabolic reaction controls.
(§5) After 0, 10, 20, 45, 90, 120 and 180 min of incubation, the reaction was terminated with 225 μL of MeCN:MeOH (2:1) containing 100 ng/mL of diclofenac as analytical internal standard. Samples were mixed, centrifuged and the supernatant analyzed by LC-MS/MS.
(§6) The instrument responses (ratios of test compound and internal standard peak areas) were referenced to the zero time point samples (considered as 100%) in order to determine the percentage of compound remaining.
(§7) Plots of percentage compound remaining were used to determine the intrinsic clearance in the hepatocyte incubations using the following equations:
(§8) Scaled Clint [L/h/kg]=Clint [μL/min/10^6 cells]*#(10) cells/g liver*60*(1/10^6) Scaled Clint unbound [L/h/kg]=Clint [L/h/kg]/Fu,inc where: fu,inc equals hepatocyte binding, derived from microsomal binding (fu,mic) by following equation: […]

[3] = test system: Human Hepatocyte; assay: Metabolic stability in human hepatocytes; format: in vitro ADME; conditions: human cryopreserved hepatocytes, 1 μM
Experimental: as §1, §2, §3, §4, §5, §6, §7, §8

Row | SMILES | IC50 [1] [nM] | Mouse Hepatocyte stability (Perc. remaining at 90 min) [2] [Perc.] | Human Hepatocyte stability (Perc. remaining at 90 min) [3] [Perc.]
1 | O=C(Nc1cn2cc(C3CCOCC3)nc2c(F)c1OCC(F)F)c1cccn(C2CC2)c1=O [Compound 19, 1-cyclopropyl-N-(7-(2,2-difluoroethoxy)-8-fluoro-2-(tetrahydro-2H-pyran-4-yl)imidazo[1,2-a]pyridin-6-yl)-2-oxo-1,2-dihydropyridine-3-carboxamide] | 10 to 50 | 76.5 | 56.6
2 | CNC(=O)c1cc2nc(C3COCCO3)cn2cc1NC(=O)c1cccc(C(C)(F)F)n1 (stereo not drawn) [Compound 14, 6-(6-(1,1-difluoroethyl)picolinamido)-2-(1,4-dioxan-2-yl)-N-methylimidazo[1,2-a]pyridine-7-carboxamide] | 0.1 to 5 | 67.65 | 100.05
